In patent EP1715036A1, “Crystal structure of an Aurora-B/INCENP complex” (Boehringer Ingelheim International GmbH, priority 2005, dated 2006):

Experiments:
Assay type in all cases: biochemical
[1] = target: T1, wt-Aurora-B^60-361/INCENP^790-847 (Xenopus laevis, UniProt Q6DE08); assay: radioactive kinase filterbinding assay, IC50 determination; details: wt enzyme complex at 5 nM; 100 µM ATP, 10 µM substrate peptide; spread printed ± 2 nM
T1 construct: GST (N, cleaved yes); made in house; host or cells: E. coli BL21(DE3) with pUBS520 helper plasmid
T1 sequence (Q6DE08 60-361): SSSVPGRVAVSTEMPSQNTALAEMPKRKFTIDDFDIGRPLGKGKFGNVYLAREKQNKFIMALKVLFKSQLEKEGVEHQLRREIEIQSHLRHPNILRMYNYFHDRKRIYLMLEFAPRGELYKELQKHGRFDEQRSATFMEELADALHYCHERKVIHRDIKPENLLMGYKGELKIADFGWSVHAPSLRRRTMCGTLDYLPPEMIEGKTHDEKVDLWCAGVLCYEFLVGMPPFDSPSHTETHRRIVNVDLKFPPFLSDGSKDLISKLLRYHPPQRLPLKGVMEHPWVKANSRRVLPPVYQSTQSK
T1 sequence (O13024 790-847 partner limits assumed): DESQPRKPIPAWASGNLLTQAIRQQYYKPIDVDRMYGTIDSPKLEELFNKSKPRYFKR
Experimental: (§1) The ATP-KM value for the G96V mutant (83 µM) is similar to the wt enzyme (61 µM). The kinase assays are run in the presence of 100 µM ATP using 10 µM of a substrate peptide (see Materials and Methods).
(§2) Hesperadin is a potent inhibitor of human Aurora-B (Hauf, 2003). To determine whether Hesperadin inhibits also xAurora-B /INCENP complexes, a kinase filterbinding assay is employed for IC50-determinations. Both, the G96V and the wt enzyme complex are used at 5 nM concentration in the assays.
(§3) Purified xAurora-B/INCENP is snap frozen and stored for further use at -80°C in desalting buffer (50 mM Tris/Cl pH 8.0, 150mM NaCl, 0.1mM EDTA, 0.03% Brij-35, 10% glycerol, 1mM DTT). xAurora-B/INCENP is incubated in the presence or absence of a test compound dilutions in DMSO prior to addition of substrate peptide and P33-γ-ATP. Samples without a test compound or without substrate peptide are used as high or low-controls, respectively. IC50 values are determined using Graph Pad Prism software.
(§4) For the filter-binding kinase assay (reaction volume 50 ul /well), 96-well PP-Microplates (Greiner, 655 201) are used. To 10µl compound in 25% DMSO are added 30µl PROTEIN-MIX (166 µM ATP,1x kinase buffer [50mM Tris/Cl pH7.5,25mM MgC12, 25mM NaCl], 10-20 ng xAurora-B/INCENP) followed by an 15 min incubation at room temperature (agitating, 350rpm). […]

[2] = target: T2, G96V-Aurora-B^60-361/INCENP^790-847 (Xenopus laevis, UniProt Q6DE08, G96V); assay: as above; details: G96V enzyme complex at 5 nM; 100 µM ATP, 10 µM substrate peptide; spread printed ±13 nM
T2 construct: GST (N, cleaved yes); made in house; host or cells: E. coli BL21(DE3) with pUBS520 helper plasmid
T2 sequence (Q6DE08 60-361 G96V): as the sequence (Q6DE08 60-361) above, with G37V counted along it
T2 sequence (O13024 790-847 partner limits assumed): as the sequence (O13024 790-847 partner limits assumed) above
Experimental: as §1, §2, §3, §4

monomeric human Aurora-B = monomeric human Aurora-B (Homo sapiens, UniProt Q96GD4); assay: kinase assay on monomeric human Aurora-B; details: assay conditions which allow similar signal/noise ratios
Sequence of monomeric human Aurora-B (Q96GD4 whole entry): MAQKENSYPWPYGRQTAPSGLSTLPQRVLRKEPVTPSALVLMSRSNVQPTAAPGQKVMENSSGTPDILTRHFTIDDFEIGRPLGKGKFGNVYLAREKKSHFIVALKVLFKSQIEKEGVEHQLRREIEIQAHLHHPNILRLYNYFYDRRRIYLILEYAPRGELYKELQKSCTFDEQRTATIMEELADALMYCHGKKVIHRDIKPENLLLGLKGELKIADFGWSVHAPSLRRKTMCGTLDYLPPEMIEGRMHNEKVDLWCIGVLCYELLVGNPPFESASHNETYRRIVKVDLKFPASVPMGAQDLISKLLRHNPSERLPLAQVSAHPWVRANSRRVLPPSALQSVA

IC50 [1]: 7 nM
IC50 [2]: 25 nM
IC50 (monomeric human Aurora-B): 44 nM
Compound: CCS(=O)(=O)Nc1ccc2c(c1)/C(=C(/Nc1ccc(CN3CCCCC3)cc1)c1ccccc1)C(=O)N2 [Hesperadin]
